Measurements taken from patent US20250084087A1, “BICYCLIC HETEROCYCLES AS MRGPRX2 ANTAGONISTS” (Incyte Corporation, priority 2023, published 2025).

Legend:
Type in all cases: cell-based
MRGPRX2 [1] = target: T1, MRGPRX2 (Homo sapiens, UniProt Q96LB1); assay: MRGPRX2 FLIPR calcium mobilization assay; set-up: host or cells: CHO-K1; conditions: CHO-K1 cells stably expressing human MRGPRX2; Ca2+ release; agonist Cortistatin-14 at EC80
T1 sequence (Q96LB1 1-330): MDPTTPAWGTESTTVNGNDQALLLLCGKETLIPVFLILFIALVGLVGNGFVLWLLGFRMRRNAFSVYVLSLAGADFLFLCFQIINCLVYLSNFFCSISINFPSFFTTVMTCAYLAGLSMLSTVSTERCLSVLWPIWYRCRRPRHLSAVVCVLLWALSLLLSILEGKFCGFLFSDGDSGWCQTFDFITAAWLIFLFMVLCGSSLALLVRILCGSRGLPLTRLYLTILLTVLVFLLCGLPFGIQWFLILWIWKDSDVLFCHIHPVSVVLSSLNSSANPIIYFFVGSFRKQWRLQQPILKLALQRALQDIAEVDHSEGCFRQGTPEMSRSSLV
How it was run: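 CHO-K1 cells stably expressing the receptor, loaded with Calcium 6 dye, then preincubated 30 min at r.t. with compound in HBSS/20 mM HEPES pH 7.4. Cortistatin-14 at EC80 added; baseline-adjusted maximum RFU read over 110 s. IC50 from 3- or 4-parameter Hill fit.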

MRGPRX2 [2] = target: T1, MRGPRX2; assay: MRGPRX2 IP1 HTRF assay; set-up: host or cells: CHO-K1; conditions: CHO-K1 cells stably expressing human MRGPRX2; IP1 accumulation; agonist Cortistatin 14 1 μM
How it was run: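 CHO-K1 cells stably expressing human MRGPRX2, preincubated with compound 1 h at 37 °C, then stimulated with 1 μM Cortistatin 14 for 1 h. IP1 measured by HTRF against standard curve, normalized to DMSO and reference antagonist controls; IC50 from 3- or 4-parameter Hill fit.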

MRGPRX2 [3] = target: T1, MRGPRX2; assay: MRGPRX2 β-Arrestin recruitment assay (PathHunter); set-up: host or cells: CHO-K1 (PathHunter); conditions: PathHunter CHO-K1 MRGPRX2 β-Arrestin cell line; agonist Cortistatin 14 0.25 μM
How it was run: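 CHO-K1 PathHunter cells co-expressing ProLink-tagged MRGPRX2 and enzyme-acceptor-tagged β-arrestin were preincubated with compound 1 h at 37° C., then stimulated with cortistatin-14 (0.25 μM final) for 90 min. Enzyme-complementation luminescence read after 1 h detection; data normalized to DMSO and reference antagonist, IC50 from 3- or 4-parameter Hill fit.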

IC50 (MRGPRX2 [1]) [nM] | IC50 (MRGPRX2 [2]) [nM] | IC50 (MRGPRX2 [3]) [nM] | Compound
0.1 to 100 | 0.1 to 100 | 0.1 to 100 | NS(=O)(=O)N1CC(CNc2cc(C(F)(F)F)nc3cc(C(F)(F)F)nn23)(n2cc(F)cn2)C1 [Example 9, 3-(((2,5-Bis(trifluoromethyl)pyrazolo[1,5-a]pyrimidin-7-yl)amino)methyl)-3-(4-fluoro-1H-pyrazol-1-yl)azetidine-1-sulfonamide]
0.1 to 100 | 0.1 to 100 | 0.1 to 100 | CNC(=O)N1CCC(CNc2cc(C)nc3nc(C(F)(F)F)nn23)(c2ccccc2)CC1 [Example 18, N-Methyl-4-(((5-methyl-2-(trifluoromethyl)-[1,2,4]triazolo[1,5-a]pyrimidin-7-yl)amino)methyl)-4-phenylpiperidine-1-carboxamide]
0.1 to 100 | 0.1 to 100 | 0.1 to 100 | CC(=O)N1CCC(CNc2cccc3nc(C(F)(F)F)cn23)(c2ccccc2)CC1 [Example 20, 1-(4-Phenyl-4-(((2-(trifluoromethyl)imidazo[1,2-a]pyridin-5-yl)amino)methyl)piperidin-1-yl)ethan-1-one]
0.1 to 100 | 0.1 to 100 | 0.1 to 100 | CNC(=O)N1CCC(CNc2cccc3nc(C(F)(F)F)cn23)(c2ccccc2)CC1 [Example 21, N-Methyl-4-phenyl-4-(((2-(trifluoromethyl)imidazo[1,2-a]pyridin-5-yl)amino)methyl)piperidine-1-carboxamide]
0.1 to 100 | 0.1 to 100 | 0.1 to 100 | NS(=O)(=O)N1CC(CNc2cc(C(F)(F)F)nc3cc(C(F)(F)F)nn23)(c2ccc(F)cc2)C1 [Example 30, 3-(((2,5-Bis(trifluoromethyl)pyrazolo[1,5-a]pyrimidin-7-yl)amino)methyl)-3-(4-fluorophenyl)azetidine-1-sulfonamide]
0.1 to 100 | 0.1 to 100 | 0.1 to 100 | NC(=O)N1CC(CNc2cc(C(F)(F)F)nc3cc(C(F)(F)F)nn23)(c2ccc(F)cc2)C1 [Example 31, 3-(((2,5-Bis(trifluoromethyl)pyrazolo[1,5-a]pyrimidin-7-yl)amino)methyl)-3-(4-fluorophenyl)azetidine-1-carboxamide]
0.1 to 100 | 0.1 to 100 | 0.1 to 100 | NS(=O)(=O)N1CC(CNc2cccc3nc(C(F)(F)F)nn23)(c2ccc(F)cc2)C1 [Example 32, 3-(4-Fluorophenyl)-3-(((2-(trifluoromethyl)-[1,2,4]triazolo[1,5-a]pyridin-5-yl)amino)methyl)azetidine-1-sulfonamide]
0.1 to 100 | 0.1 to 100 | 0.1 to 100 | NC(=O)N1CC(CNc2cccc3nc(C(F)(F)F)nn23)(c2ccc(F)cc2)C1 [Example 33, 3-(4-Fluorophenyl)-3-(((2-(trifluoromethyl)-[1,2,4]triazolo[1,5-a]pyridin-5-yl)amino)methyl)azetidine-1-carboxamide]
0.1 to 100 | 0.1 to 100 | 0.1 to 100 | Fc1ccc(C2(CNc3cccc4nc(C(F)(F)F)cn34)CCC2)cc1 [Example 36, N-((1-(4-Fluorophenyl)cyclobutyl)methyl)-2-(trifluoromethyl)imidazo[1,2-a]pyridin-5-amine]
0.1 to 100 | 0.1 to 100 | 0.1 to 100 | FC(F)(F)c1cn2c(NCC3(c4ccncc4)CCC3)cccc2n1 [Example 37, N-((1-(Pyridin-4-yl)cyclobutyl)methyl)-2-(trifluoromethyl)imidazo[1,2-a]pyridin-5-amine]
0.1 to 100 | 0.1 to 100 | 0.1 to 100 | COc1ccc(C2(CNc3cccc4nc(C(F)(F)F)cn34)CCOCC2)cc1 [Example 39, N-((4-(4-Methoxyphenyl)tetrahydro-2H-pyran-4-yl)methyl)-2-(trifluoromethyl)imidazo[1,2-a]pyridin-5-amine]
0.1 to 100 | 0.1 to 100 | 0.1 to 100 | CN1CCN(C2CC(CNc3cc(C(F)(F)F)nc4cc(Br)nn34)(c3ccccc3)C2)CC1 (stereo not drawn) [Example 43, 2-Bromo-N-((3-(4-methylpiperazin-1-yl)-1-phenylcyclobutyl)methyl)-5-(trifluoromethyl)pyrazolo[1,5-a]pyrimidin-7-amine]
0.1 to 100 | 0.1 to 100 | 0.1 to 100 | OCCNC1CC(CNc2cc(C(F)(F)F)nc3cc(Br)nn23)(c2ccccc2)C1 (stereo not drawn) [Example 44, 2-((3-(((2-Bromo-5-(trifluoromethyl)pyrazolo[1,5-a]pyrimidin-7-yl)amino)methyl)-3-phenylcyclobutyl)amino)ethan-1-ol]
0.1 to 100 | 0.1 to 100 | 0.1 to 100 | N#Cc1cnc(N2CC(CNc3cc(C(F)(F)F)nc4cc(C(F)(F)F)nn34)(c3ccc(F)cc3)C2)cn1 [Example 45, 5-(3-(((2,5-Bis(trifluoromethyl)pyrazolo[1,5-a]pyrimidin-7-yl)amino)methyl)-3-(4-fluorophenyl)azetidin-1-yl)pyrazine-2-carbonitrile]
0.1 to 100 | 0.1 to 100 | 0.1 to 100 | O=C(N[C@H]1CC[C@H](O)CC1)N1CC(CNc2cc(C(F)(F)F)nc3cc(C(F)(F)F)nn23)(c2ccc(F)cc2)C1 [Example 48, 3-(((2,5-Bis(trifluoromethyl)pyrazolo[1,5-a]pyrimidin-7-yl)amino)methyl)-3-(4-fluorophenyl)-N-((1r,4r)-4-hydroxycyclohexyl)azetidine-1-carboxamide]
0.1 to 100 | 0.1 to 100 | 0.1 to 100 | O=C(N[C@H]1C[C@H](O)C1)N1CC(CNc2cc(C(F)(F)F)nc3cc(C(F)(F)F)nn23)(c2ccc(F)cc2)C1 [Example 49, 3-(((2,5-Bis(trifluoromethyl)pyrazolo[1,5-a]pyrimidin-7-yl)amino)methyl)-3-(4-fluorophenyl)-N-((1r,3r)-3-hydroxycyclobutyl)azetidine-1-carboxamide]
0.1 to 100 | 0.1 to 100 | 0.1 to 100 | NC(=O)N1CC(CNc2cc(C(F)(F)F)nc3cc(Cl)nn23)(c2ccc(F)cc2)C1 [Example 57, 3-(((2-Chloro-5-(trifluoromethyl)pyrazolo[1,5-a]pyrimidin-7-yl)amino)methyl)-3-(4-fluorophenyl)azetidine-1-carboxamide]
0.1 to 100 | 0.1 to 100 | 0.1 to 100 | NC(=O)N1CC(CNc2cc(C(F)(F)F)nc3cc(Br)nn23)(c2ccc(Cl)cc2)C1 [Example 58, 3-(((2-Bromo-5-(trifluoromethyl)pyrazolo[1,5-a]pyrimidin-7-yl)amino)methyl)-3-(4-chlorophenyl)azetidine-1-carboxamide]
0.1 to 100 | 0.1 to 100 | 0.1 to 100 | NS(=O)(=O)N1CC(CNc2cc(C(F)(F)F)nc3cc(C(F)(F)F)nn23)(c2ccc(F)cn2)C1 [Example 59, 3-(((2,5-Bis(trifluoromethyl)pyrazolo[1,5-a]pyrimidin-7-yl)amino)methyl)-3-(5-fluoropyridin-2-yl)azetidine-1-sulfonamide]
0.1 to 100 | 0.1 to 100 | 0.1 to 100 | [2H]C([2H])([2H])NC(=O)N1CC(CNc2cc(C(F)(F)F)nc3cc(C(F)(F)F)nn23)(c2ccc(F)cn2)C1 [Example 61, 3-(((2,5-Bis(trifluoromethyl)pyrazolo[1,5-a]pyrimidin-7-yl)amino)methyl)-3-(5-fluoropyridin-2-yl)-N-(methyl-d3)azetidine-1-carboxamide]
0.1 to 100 | 0.1 to 100 | 0.1 to 100 | [2H]C([2H])([2H])NC(=O)N1CC(CNc2cc(C(F)(F)F)nc3cc(C(F)F)nn23)(c2ccc(F)cc2)C1 [Example 62, 3-(((2-(Difluoromethyl)-5-(trifluoromethyl)pyrazolo[1,5-a]pyrimidin-7-yl)amino)methyl)-3-(4-fluorophenyl)-N-(methyl-d3)azetidine-1-carboxamide]
0.1 to 100 | 0.1 to 100 | 0.1 to 100 | NC(=O)N1CC(CNc2cc(Cl)nc3cc(C(F)(F)F)nn23)(c2ccc(F)cc2)C1 [Example 66, 3-(((5-Chloro-2-(trifluoromethyl)pyrazolo[1,5-a]pyrimidin-7-yl)amino)methyl)-3-(4-fluorophenyl)azetidine-1-carboxamide]
0.1 to 100 | 0.1 to 100 | 0.1 to 100 | Cc1cc(NCC2(c3ccc(F)cc3)CN(C(N)=O)C2)n2nc(C(F)(F)F)cc2n1 [Example 67, 3-(4-Fluorophenyl)-3-(((5-methyl-2-(trifluoromethyl)pyrazolo[1,5-a]pyrimidin-7-yl)amino)methyl)azetidine-1-carboxamide]
